Assay results reported in patent US10006912B2, “Peptides for diagnosing lyme disease” (B[…]., priority 2013, dated 2018).

Tests used:
[1] = test system: IgM in sera containing antibodies against B. burgdorferi proteins; assay: Epitope mapping of DbpB overlapping peptide library, IgM binding; design: species or system human; details: 8 high titer Lyme disease patient sera; 20-AA library peptides of DbpB, B. burgdorferi B31
Procedure: (§1) Epitope mapping of full-length DbpB was performed by ArrayIt, Corp. (Sunnyvale, Calif.). Briefly, an overlapping peptide library consisting of 20-AA long peptides overlapping by 15-AA (offset by 5-AA) was generated using the sequence for DbpB from B. burgdorferi B31 (Accession #AAC66244). The sequence submitted for mapping lacked the first 8 AA. The library was exposed to 8 sera containing antibodies against B. burgdorferi proteins, as determined by commercial Lyme immunostrips (Viramed Biotech AG, Planegg, Germany). IgM and IgG binding were independently evaluated, and data were reported in terms of fluorescent binding intensity. Peptides generated from epitope mapping data were produced by Lifetein, Inc (South Plainfield, N.J.). […]
(§2) Linear epitope mapping of DbpB was accomplished by probing overlapping peptide libraries containing full length sequences derived from the B31 strain of B. burgdorferi sensu stricto, with serum obtained from 8 Lyme disease patients with high levels of anti-Borrelia antibody as determined using commercially available Lyme disease immunoblot strips. […]

[2] = test system: IgG in sera containing antibodies against B. burgdorferi proteins; assay: Epitope mapping of DbpB overlapping peptide library, IgG binding; design: species or system human; details: 8 high titer Lyme disease patient sera; 20-AA library peptides of DbpB, B. burgdorferi B31
Procedure: as §1, §2

Substance | samples in which the peptide was bound by IgM [1] [%] | samples in which the peptide was bound by IgG [2] [%]
DbpB(38-57): 20-AA library peptide of DbpB from B. burgdorferi B31; one of two overlapping peptides forming DbpB(38-67) (KDLKNKILKIKKEATGKGVL) | 100 | –
DbpB(48-67): 20-AA library peptide of DbpB from B. burgdorferi B31; one of two overlapping peptides forming DbpB(38-67) (KKEATGKGVLFEAFTGLKTG) | – | 100
